Source: patent publication US20240390434A1, “PROBIOTIC ENHANCERS AND USES THEREOF” (Blis Technologies Limited, priority 2021, published 2024)

Assays:
Type in all cases: cell-based
[1] = system: S. sobrinus OMZ176; experiment: Deferred antagonism assay, producer S. salivarius K12; details: Streptococcus sobrinus, read-out: Size of zone inhibition normalised to control, S. sobrinus OMZ176
Method: (§1) 1-2 producer strain colonies were transferred from a stock plate into 900 μL of suspension solution using a fresh cotton swab. Following this, suspensions were vortexed, and a sample was inoculated onto solid culture media using a fresh cotton swab. The inoculation was a streak that runs diametrically across the agar plate in a 1.5 cm wide strip. The plate was then incubated. Following incubation all visible colonies were removed by swabbing them from the agar surface. The plates were then treated with chloroform by dispensing 2 ml of chloroform onto 4 cm×4 cm piece of cloth and sealing the inverted agar plate on top for 30 minutes. The plates were then air dried for 30 minutes following chloroforming. 1-2 indicator strain colonies were then transferred from a stock plate into complementary suspension solution. The suspensions were then vortexed, and a sample was inoculated onto the same agar surface. These samples were streaked in a perpendicular direction to the initial producer streak.
(§2) Each indicator streak was prepared with fresh a suspension containing cells from a corresponding stock plate containing the indicator strain of interest. Indicator strains suspension samples were transferred using a fresh cotton swab. Results were measured by qualitatively reviewing the subsequent (if any) sizes of the zones of inhibition (ZOI) of indicator strain colony growth. A positive result is when there is a distinctive reduction or complete inhibition of indicator colony growth on the culture medium.
(§3) Method: CABCa agar plates were prepared with or without 0.5, 1.25, 1.7, 2.5, 3.3 and 5% galactose by the addition of 0.5% (w/v) calcium carbonate to solid CAB agar in bottles and then melted by autoclaving at 110° C. for 10 mins. Once cooled, filter sterilised solutions of the saccharides or distilled water were added and mixed and then 20 ml pipetted into petri dishes.
(§4) A deferred antagonism assay was conducted using K12 or M18 raw ingredient suspended in Todd Hewitt broth (THB). This was spread as a 1.2 cm streak containing approximately 1-2×10^6 cfu down the middle of a CABCa control or CABCa galactose supplemented test plate. After 18 hrs growth at 37° C. with 5% CO2, bacterial growth was removed, and the pH of the agar in the initial streak was measured and adjusted to a pH of 6.5-7.5 using 0.5M sodium carbonate pH11 before sterilizing the agar surface using chloroform vapor. Bacterial test strains were suspended in i-THB before being swabbed across the plates perpendicular to the initial streak. Plates were incubated for a further 18 hrs incubation at 37° C. with 5% CO2 before measuring (mm) any zones of inhibition for each test strain, […]

[2] = system: S. pyogenes M57; experiment: Dose response deferred antagonism assay, producer K12; details: 0.1%, 1.0%, and 1.5% (w/v) galactose
Method: as §1, §2
(§5) CABCa agar plates containing various concentrations of saccharide were prepared according to the methods described in Method 1. Producer strains were transferred from stock agar plates into 900 μL THB using a fresh cotton swab. A plastic spread plater was cut to approximately 1.2 cm width and then dipped into ethanol and left to air dry to ensure sterility. A 100 μL sample of the producer strain suspension was then dispensed onto the agar surface in a straight line running diametrically across the agar surface in (approximately) 20 μL spots. The spots were spaced approximately 1.5 cm apart from each other. The plastic spreader was then used to evenly distribute the spots across the agar surface in a 1.5 cm wide strip. This step was taken to ensure an even producer streak was inoculated onto the agar surface and provided an approximate measure of the initial inoculum concentration. Separate plastic spreaders were used for samples containing different producer strains. The samples were left to soak into the agar surface until there was no visible liquid remaining on the agar surface (approximately 20 minutes). Following producer streak preparations, the deferred antagonism assay protocol was followed as per Method 2. Results were recorded by measuring the size of the zone of inhibition (ZOI) in mm.
(§6) The results presented in FIG. 1 and FIG. 2 illustrate the change in ear, nose, and throat (ENT) microorganism indicator strain zone of inhibition sizes. When K12 was cultured in the presence of various concentrations of galactose the ZOI sizes for several of the ENTR indicator strains increased markedly from the control condition (FIG. 1). M. catarrhalis TW1 and TW2 display similar changes in the ZOI sizes across the various concentrations of galactose. The change in TW1 ZOI size peaks at 1.5% galactose(w/v) (12 mm) then decreases at 2.0% galactose (w/v), whereas the change of TW2 ZOI size peaks at 2.0% galactose (w/v) (11 mm). The change in L. lactis T-21 ZOI sizes trend upwards relative to the concentration of galactose present in the culture medium.

[3] = system: S. pyogenes M76; experiment: Dose response deferred antagonism assay, producer M18; details: 1.5% (w/v) galactose, largest
[4] = system: S. sobrinus OMZ176; experiment: Deferred antagonism assay, producer S. salivarius M18; details: Streptococcus sobrinus, read-out: Size of zone inhibition normalised to control, S. sobrinus OMZ176
Method: as §1, §2, §3, §4

[5] = system: microorganisms associated with skin, dental, ENTR; experiment: Dose response assay, raffinose vs equimolar trimix and individual saccharides, K12; details: equimolar concentration
Method: as §5, with “mm. […]” for “mm.”

[6] = system: P. aeruginosa I2; experiment: Dose response deferred antagonism assay, producer M18; details: 1.5% (w/v) raffinose
[7] = system: H. influenzae TW5; experiment: as above; details: 1.5% (w/v) raffinose
[8] = system: H. influenzae TW5; experiment: Dose response deferred antagonism assay, producer K12
Method: as §1, §2, §5, §6

SMILES | zone of inhibition at 1.25 % strength ([1]; Galactose 1.25% w/w) [mm] | zone of inhibition at 1.7 % strength ([1]; Galactose 1.7% w/w) [mm] | zone of inhibition at 2.5 % strength ([1]; Galactose 2.5% w/w) [mm] | zone of inhibition at 3.3 % strength ([1]; Galactose 3.3% w/w) [mm] | zone of inhibition at 5 % strength ([1]; Galactose 5% w/w) [mm] | S. pyogenes M57 ZOI sizes vs control condition [2] | S. pyogenes M76 zone of inhibition [3] [mm] | zone of inhibition at 0.5 % strength ([4]; Galactose 0.5% w/w) [mm] | zone of inhibition at 1.25 % strength ([4]; Galactose 1.25% w/w) [mm] | zone of inhibition at 1.7 % strength ([4]; Galactose 1.7% w/w) [mm] | zone of inhibition at 2.5 % strength ([4]; Galactose 2.5% w/w) [mm] | zone of inhibition at 3.3 % strength ([4]; Galactose 3.3% w/w) [mm] | zone of inhibition at 5 % strength ([4]; Galactose 5% w/w) [mm] | inhibitory activity of K12 compared to equivalent composition of the three monomeric saccharides [5] | P. aeruginosa I2 ZOI [6] [mm] | H. influenzae TW5 ZOI size [7] [mm] | change in ZOI size for H. influenzae TW5 ([8]; 1.5% raffinose (w/v), peak) [mm] | TW5 ZOI size change ([8]; 2% raffinose (w/v)) [mm]
O=C[C@H](O)[C@@H](O)[C@@H](O)[C@H](O)CO [Galactose, D-galactose] | 0 | 0 | 0 | 0 | 0 | increase | 14 | 0 | 0 | 0 | 0 | 0 | 0 |  |  |  |  | 
OC[C@H]1O[C@H](OC[C@H]2O[C@H](O[C@]3(CO)O[C@H](CO)[C@@H](O)[C@@H]3O)[C@H](O)[C@@H](O)[C@@H]2O)[C@H](O)[C@@H](O)[C@H]1O [Raffinose, D-(+) Raffinose pentahydrate] |  |  |  |  |  |  |  |  |  |  |  |  |  | better inhibitory activity | 10 | 26 | 12 | 0
